Laboratory results published in publication PMC10745491 (Frontiers in Cellular Neuroscience, 2023).
Where two headings read alike, the source gives them in different places. Peptide text beside a SMILES is read from it.

Assays:
A1 = A1 (Homo sapiens, UniProt P30542); assay: radioligand binding assay
BZD = assay: radioligand binding assay; set-up: species or system human
D2S = D2S (Homo sapiens, UniProt P14416); type: binding
FP = FP (Homo sapiens, UniProt P43088); type: binding
5-HT2A = 5-HT2A (Homo sapiens, UniProt P28223); assay: radioligand binding assay
Ca2+ channel = type: binding, human
human OXTR = human OXTR (Homo sapiens, UniProt P30559)
[1] = tested on: PFC layer 5 pyramidal neurons; conditions: rat, in vivo
CPA rats = conditions: rat, in vivo; for social interaction time (Fig. 5O): sc
mPFC transcriptome = conditions: rat, in vivo, 0.07 mg/kg
alpha 2A = alpha 2A (Homo sapiens, UniProt P08913)
H3 = H3 (Homo sapiens, UniProt Q9Y5N1)
kappa = kappa (Homo sapiens, UniProt P41145)
GR = GR (Homo sapiens, UniProt P04150)
CDK2 = CDK2 (Homo sapiens, UniProt P24941)
[2] = biological target: xanthine oxidase / superoxide O2-scavenging (Bos taurus, UniProt P80457)
rat OXTR = rat OXTR (Rattus norvegicus, UniProt P70536); assay: cell-based
human V1aR = human V1aR (Homo sapiens, UniProt P37288); assay: cell-based

FP, sequence (P43088 whole entry): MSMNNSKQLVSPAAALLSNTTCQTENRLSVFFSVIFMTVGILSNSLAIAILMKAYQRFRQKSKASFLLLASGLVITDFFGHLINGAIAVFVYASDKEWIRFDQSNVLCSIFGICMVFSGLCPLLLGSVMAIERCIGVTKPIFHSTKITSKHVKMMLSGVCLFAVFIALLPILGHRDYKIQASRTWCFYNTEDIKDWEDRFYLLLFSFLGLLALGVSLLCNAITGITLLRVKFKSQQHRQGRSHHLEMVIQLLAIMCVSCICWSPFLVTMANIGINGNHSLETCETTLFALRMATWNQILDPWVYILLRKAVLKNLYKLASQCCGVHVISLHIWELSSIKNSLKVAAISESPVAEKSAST
D2S, sequence (P14416 other isoform, or with tags, fused parts or gaps): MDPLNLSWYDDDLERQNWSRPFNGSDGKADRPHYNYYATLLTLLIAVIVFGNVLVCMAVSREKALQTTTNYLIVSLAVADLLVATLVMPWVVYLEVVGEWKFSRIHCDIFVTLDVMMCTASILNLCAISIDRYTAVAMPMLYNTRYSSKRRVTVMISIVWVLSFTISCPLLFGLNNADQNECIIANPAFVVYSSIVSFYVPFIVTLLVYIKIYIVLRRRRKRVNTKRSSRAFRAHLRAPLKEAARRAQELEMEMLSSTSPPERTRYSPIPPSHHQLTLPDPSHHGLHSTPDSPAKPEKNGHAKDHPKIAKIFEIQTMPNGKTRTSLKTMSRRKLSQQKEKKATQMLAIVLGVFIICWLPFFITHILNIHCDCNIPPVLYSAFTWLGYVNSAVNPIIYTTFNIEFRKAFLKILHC
alpha 2A, sequence (P08913 whole entry): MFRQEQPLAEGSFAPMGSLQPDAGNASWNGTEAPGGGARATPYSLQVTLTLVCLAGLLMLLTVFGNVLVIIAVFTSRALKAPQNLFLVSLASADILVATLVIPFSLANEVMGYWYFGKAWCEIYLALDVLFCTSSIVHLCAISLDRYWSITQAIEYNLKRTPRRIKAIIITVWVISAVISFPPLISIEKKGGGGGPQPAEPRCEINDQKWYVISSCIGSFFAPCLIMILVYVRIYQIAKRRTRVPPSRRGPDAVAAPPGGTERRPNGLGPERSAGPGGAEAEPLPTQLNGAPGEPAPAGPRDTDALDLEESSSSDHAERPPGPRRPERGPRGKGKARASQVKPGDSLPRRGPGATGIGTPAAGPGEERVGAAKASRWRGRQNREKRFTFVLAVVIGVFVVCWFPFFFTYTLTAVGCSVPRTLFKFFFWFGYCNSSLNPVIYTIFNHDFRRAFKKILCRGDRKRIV
A1, sequence (P30542 whole entry): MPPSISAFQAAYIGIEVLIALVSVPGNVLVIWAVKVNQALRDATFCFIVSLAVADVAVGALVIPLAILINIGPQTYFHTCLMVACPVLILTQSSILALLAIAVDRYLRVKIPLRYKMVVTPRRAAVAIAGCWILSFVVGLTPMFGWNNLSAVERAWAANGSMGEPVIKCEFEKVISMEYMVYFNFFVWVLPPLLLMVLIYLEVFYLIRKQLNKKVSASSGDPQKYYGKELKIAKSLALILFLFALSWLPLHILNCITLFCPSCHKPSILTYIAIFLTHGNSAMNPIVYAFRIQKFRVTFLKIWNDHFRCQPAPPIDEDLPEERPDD
H3, sequence (Q9Y5N1 whole entry): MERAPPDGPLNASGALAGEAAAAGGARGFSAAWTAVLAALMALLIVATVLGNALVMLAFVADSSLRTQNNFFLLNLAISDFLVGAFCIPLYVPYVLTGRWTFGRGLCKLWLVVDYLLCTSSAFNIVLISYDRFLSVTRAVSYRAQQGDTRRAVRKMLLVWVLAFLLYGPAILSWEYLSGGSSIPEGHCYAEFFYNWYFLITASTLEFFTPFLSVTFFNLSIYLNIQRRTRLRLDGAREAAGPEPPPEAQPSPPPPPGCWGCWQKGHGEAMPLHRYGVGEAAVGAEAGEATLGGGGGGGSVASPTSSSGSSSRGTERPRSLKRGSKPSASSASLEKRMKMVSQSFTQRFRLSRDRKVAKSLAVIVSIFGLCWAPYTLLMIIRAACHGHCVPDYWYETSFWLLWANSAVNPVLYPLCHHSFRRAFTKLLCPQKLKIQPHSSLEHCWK
xanthine oxidase / superoxide O2-scavenging, sequence (P80457 2-1332): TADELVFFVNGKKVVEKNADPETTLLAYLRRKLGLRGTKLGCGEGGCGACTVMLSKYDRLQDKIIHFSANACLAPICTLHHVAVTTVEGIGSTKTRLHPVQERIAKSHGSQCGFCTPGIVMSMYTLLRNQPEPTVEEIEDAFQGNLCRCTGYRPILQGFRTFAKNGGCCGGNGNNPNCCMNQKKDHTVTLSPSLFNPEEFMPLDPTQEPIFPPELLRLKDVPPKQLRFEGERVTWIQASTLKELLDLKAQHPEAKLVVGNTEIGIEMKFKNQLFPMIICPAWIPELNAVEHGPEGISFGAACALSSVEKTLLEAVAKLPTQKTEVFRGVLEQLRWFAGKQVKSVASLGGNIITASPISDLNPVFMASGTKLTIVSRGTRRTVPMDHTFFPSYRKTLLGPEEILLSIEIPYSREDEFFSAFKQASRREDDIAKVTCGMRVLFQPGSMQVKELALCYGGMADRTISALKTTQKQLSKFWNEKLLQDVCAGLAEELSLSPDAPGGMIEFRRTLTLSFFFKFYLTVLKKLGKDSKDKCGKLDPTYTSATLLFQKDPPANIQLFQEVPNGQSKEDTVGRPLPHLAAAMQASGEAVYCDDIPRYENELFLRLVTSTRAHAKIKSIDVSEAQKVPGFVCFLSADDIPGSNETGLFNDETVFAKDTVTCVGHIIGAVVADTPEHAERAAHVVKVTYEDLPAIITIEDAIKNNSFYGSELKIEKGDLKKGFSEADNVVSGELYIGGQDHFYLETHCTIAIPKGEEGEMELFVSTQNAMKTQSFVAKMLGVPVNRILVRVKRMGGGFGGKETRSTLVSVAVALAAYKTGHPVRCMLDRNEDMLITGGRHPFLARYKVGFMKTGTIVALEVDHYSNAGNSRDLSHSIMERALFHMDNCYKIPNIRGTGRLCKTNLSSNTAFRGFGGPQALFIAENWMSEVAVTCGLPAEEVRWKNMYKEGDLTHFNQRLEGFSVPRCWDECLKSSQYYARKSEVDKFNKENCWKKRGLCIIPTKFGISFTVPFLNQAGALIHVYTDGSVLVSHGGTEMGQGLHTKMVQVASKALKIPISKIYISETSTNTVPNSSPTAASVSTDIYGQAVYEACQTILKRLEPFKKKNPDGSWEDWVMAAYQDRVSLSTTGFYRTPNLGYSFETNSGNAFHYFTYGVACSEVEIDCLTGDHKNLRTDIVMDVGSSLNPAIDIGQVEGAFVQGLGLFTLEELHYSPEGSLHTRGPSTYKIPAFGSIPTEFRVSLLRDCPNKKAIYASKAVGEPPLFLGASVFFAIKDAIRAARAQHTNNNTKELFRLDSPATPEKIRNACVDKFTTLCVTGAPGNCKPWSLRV
GR, sequence (P04150 whole entry): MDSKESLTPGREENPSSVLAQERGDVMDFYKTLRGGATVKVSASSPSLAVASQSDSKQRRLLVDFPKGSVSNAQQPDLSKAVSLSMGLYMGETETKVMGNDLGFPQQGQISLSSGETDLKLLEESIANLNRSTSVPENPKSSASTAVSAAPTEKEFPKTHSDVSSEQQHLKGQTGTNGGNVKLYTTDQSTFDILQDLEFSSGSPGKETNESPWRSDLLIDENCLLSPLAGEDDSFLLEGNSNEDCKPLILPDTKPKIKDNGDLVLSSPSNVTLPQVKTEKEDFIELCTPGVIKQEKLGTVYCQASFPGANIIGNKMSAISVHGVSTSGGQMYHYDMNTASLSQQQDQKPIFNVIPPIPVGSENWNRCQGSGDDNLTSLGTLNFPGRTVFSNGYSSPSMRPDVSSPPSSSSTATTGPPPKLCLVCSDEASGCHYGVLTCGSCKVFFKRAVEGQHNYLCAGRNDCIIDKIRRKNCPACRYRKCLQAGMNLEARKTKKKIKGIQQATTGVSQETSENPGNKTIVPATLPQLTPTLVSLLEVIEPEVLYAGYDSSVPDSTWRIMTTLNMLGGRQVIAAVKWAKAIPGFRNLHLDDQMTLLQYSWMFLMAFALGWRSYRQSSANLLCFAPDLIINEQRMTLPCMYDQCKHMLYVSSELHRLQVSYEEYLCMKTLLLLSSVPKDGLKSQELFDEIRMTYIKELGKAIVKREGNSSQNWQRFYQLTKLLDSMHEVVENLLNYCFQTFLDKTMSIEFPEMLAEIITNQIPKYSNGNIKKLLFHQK
kappa, sequence (P41145 whole entry): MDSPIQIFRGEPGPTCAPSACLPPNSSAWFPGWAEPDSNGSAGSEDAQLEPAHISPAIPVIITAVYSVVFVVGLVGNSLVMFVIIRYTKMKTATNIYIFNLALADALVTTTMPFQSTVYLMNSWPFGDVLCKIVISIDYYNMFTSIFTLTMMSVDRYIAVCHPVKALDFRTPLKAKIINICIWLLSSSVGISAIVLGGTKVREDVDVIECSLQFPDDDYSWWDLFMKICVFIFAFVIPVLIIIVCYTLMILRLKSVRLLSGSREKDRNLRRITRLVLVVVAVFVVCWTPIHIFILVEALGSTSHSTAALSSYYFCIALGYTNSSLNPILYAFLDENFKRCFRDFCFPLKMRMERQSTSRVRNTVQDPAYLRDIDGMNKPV
5-HT2A, sequence (P28223 whole entry): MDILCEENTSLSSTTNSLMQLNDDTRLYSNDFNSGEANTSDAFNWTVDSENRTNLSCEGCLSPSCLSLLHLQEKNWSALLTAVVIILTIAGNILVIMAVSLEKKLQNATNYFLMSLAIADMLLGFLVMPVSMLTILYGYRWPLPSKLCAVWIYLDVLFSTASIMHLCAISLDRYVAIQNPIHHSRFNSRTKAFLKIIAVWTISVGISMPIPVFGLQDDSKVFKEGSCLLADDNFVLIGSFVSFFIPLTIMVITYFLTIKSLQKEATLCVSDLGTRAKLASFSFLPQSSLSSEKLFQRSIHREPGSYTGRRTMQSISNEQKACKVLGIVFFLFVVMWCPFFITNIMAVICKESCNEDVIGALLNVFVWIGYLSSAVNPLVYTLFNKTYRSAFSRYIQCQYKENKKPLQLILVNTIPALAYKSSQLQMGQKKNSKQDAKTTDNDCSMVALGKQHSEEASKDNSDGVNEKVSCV

Q: Which results are given for CC[C@H](C)[C@@H]1NC(=O)[C@H](Cc2ccc(O)cc2)NC(=O)CNC(=O)CC[C@@H](C(=O)N2CC(F)C[C@H]2C(=O)N[C@@H](CC(C)C)C(=O)NCC(N)=O)NC(=O)[C@H](CC(N)=O)NC(=O)[C@H](CCC(N)=O)NC1=O (stereo partly shown) [RO6958375] (HELM PEPTIDE1{G.Y.I.Q.N.E.[O=C([C@@H]1CC(F)CN1[*:1])[*:2]].L.G.[am]}$PEPTIDE1,PEPTIDE1,1:R1-6:R3$$$V2.0)?
A: % Inhibition of Control Specific Binding (A1): -4%; Mean / % of Control Specific Binding (A1): 104.1%; % Inhibition of Control Specific Binding (BZD): -16%; Mean / % of Control Specific Binding (BZD): 116%; % Inhibition of Control Specific Binding (D2S): 6%; Mean / % of Control Specific Binding (D2S): 93.7%; % Inhibition of Control Specific Binding (FP): 3%; Mean / % of Control Specific Binding (FP): 96.9%; % Inhibition of Control Specific Binding (5-HT2A): 9%; Mean / % of Control Specific Binding (5-HT2A): 90.6%; % Inhibition of Control Specific Binding (Ca2+ channel): -36%; Mean / % of Control Specific Binding (Ca2+ channel): 136%; activation of human OXTR (human OXTR): fully activated; current-membrane voltage relationship and input resistance after CPA [1]: normalized; differences in passive membrane properties between control and CPA rats [1]: not observed; effect on number of evoked action potentials after CPA [1]: only partially recovered; effect on rheobase after CPA [1]: fully restored; AUC of current-voltage (IV) curve (Fig. 5L) ([1]; 0.07 mg/kg): 36.9 ± 4.56; AUC of number of action potentials per current step (Fig. 5J) ([1]; sc, 0.07 mg/kg): 9.79 ± 2.74; input resistance (Rin) at 80 pA (Fig. 5M) ([1]; sc, 0.07 mg/kg): 180.7 MΩ; membrane capacitance, Cm (Fig. 5E) ([1]; sc, 0.07 mg/kg): 65.11 pF; membrane resistance, Rm (Fig. 5D) ([1]; sc, 0.07 mg/kg): 77.59 MΩ; resting membrane potential, Vrest (Fig. 5C) ([1]; sc, 0.07 mg/kg): -66.87 mV; rheobase (Fig. 5K) ([1]; sc, 0.07 mg/kg): 209; social deficits observed in CPA rats (CPA rats): not evident; social interaction time (Fig. 5O) (CPA rats; 0.001 mg/kg): 198.6 s; social interaction time (Fig. 5O) (CPA rats; 0.07 mg/kg): 190.2 s; CPA-induced transcriptomic changes (mPFC transcriptome): partially prevented; % Inhibition of Control Specific Binding (alpha 2A): -7%; Mean / % of Control Specific Binding (alpha 2A): 106.7%; % Inhibition of Control Specific Binding (glycine): 15%; Mean / % of Control Specific Binding (glycine): 84.6%; % Inhibition of Control Specific Binding (H3): -6%; Mean / % of Control Specific Binding (H3): 105.9%; % Inhibition of Control Specific Binding (kappa): -13%; Mean / % of Control Specific Binding (kappa): 112.7%; % Inhibition of Control Specific Binding (sigma): 4%; Mean / % of Control Specific Binding (sigma): 96.2%; % Inhibition of Control Specific Binding (GR): -9%; Mean / % of Control Specific Binding (GR): 109.1%; % Inhibition of Control Specific Binding (CDK2): 13%; Mean / % of Control Specific Binding (CDK2): 87.1%; % Inhibition of Control Specific Binding [2]: 8%; Mean / % of Control Specific Binding [2]: 92.1%; EC50 (rat OXTR): 0.011 nM; EC50 (human V1aR): > 27 µM
